The assay deals with T1, Glucocorticoid receptor (Homo sapiens, UniProt P04150).
T1 sequence (P04150 whole entry): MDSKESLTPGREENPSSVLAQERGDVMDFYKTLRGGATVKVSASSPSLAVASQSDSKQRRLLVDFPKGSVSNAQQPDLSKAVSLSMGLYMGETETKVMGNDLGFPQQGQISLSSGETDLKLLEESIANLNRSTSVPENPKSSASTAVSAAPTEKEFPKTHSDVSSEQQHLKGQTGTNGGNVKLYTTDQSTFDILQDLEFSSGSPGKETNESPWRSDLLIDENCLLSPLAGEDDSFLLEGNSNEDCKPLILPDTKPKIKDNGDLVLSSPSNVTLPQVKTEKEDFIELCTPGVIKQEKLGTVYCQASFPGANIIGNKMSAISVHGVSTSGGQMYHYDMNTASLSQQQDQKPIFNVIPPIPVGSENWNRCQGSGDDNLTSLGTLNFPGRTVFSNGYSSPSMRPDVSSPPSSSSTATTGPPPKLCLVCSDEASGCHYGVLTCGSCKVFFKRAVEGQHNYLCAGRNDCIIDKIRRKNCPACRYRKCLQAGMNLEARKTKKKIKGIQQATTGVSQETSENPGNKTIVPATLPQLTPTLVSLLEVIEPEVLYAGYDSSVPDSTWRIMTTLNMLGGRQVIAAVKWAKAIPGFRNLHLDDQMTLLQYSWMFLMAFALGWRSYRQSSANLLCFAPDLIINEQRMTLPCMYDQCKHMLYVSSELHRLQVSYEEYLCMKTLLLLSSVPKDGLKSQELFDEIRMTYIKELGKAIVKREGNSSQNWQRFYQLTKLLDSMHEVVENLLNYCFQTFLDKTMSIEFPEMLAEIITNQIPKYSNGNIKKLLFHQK
The assay is described as follows: Inhibition of glucocorticoid receptor.

`C[C@@H]1C[C@H]2[C@@H]3CCC4=CC(=O)C=C[C@]4(C)[C@@]3(F)[C@@H](O)C[C@]2(C)[C@@]1(O)C(N)=O` [OXDEX] had a 50% inhibitory concentration (IC50) of 600 nM. `C[C@@H]1C[C@H]2[C@@H]3CCC4=CC(=O)C=C[C@]4(C)[C@@]3(F)[C@@H](O)C[C@]2(C)[C@@]1(O)C(=O)CSCCC(N)=O` yielded an IC50 of 36 nM.

The values above are taken from ChEMBL document CHEMBL1150407, “High-throughput evaluation of relative cell permeability between peptoids and peptides” (Bioorg Med Chem, 2008).
